Experiments:
CYP2C9 = target: T1, CYP2C9 (Homo sapiens, UniProt P11712); assay: CYP inhibition assay in human liver microsomes; assay type: in vitro ADME; details: no pre-incubation, read-out: IC50 direct inhibition of CYP2C9
T1 construct: from tissue; host or cells: human liver microsomes
Procedure: (§1) Each CYP substrate was incubated with human liver microsomes in the absence or presence of evocalcet, and the inhibition of evocalcet for each CYP isozyme was measured.

CYP2C19 = target: T2, CYP2C19 (Homo sapiens, UniProt P33261); assay: CYP inhibition assay in human liver microsomes; assay type: in vitro ADME; details: no pre-incubation, read-out: IC50 direct inhibition of CYP2C19
T2 construct: from tissue; host or cells: human liver microsomes
T2 sequence (P33261 whole entry): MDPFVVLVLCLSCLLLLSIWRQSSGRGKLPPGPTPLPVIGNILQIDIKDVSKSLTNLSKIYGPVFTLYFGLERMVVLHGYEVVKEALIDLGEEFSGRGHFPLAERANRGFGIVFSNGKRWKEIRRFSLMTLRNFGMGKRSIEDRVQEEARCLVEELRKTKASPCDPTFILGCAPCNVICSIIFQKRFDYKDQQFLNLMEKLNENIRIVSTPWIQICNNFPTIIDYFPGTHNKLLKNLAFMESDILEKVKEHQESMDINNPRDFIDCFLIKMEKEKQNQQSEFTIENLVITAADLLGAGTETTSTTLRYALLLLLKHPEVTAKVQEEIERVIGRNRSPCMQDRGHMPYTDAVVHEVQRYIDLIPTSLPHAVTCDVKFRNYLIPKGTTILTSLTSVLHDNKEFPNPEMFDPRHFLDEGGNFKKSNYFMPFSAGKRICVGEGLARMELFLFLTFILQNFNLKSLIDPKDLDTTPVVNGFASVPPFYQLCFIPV
Procedure: as §1

human CaR = target: T3, human CaR (Homo sapiens, UniProt P41180); assay: Agonistic activity studies with HEK293 cells stably expressing human CaR (cytoplasmic Ca2+ concentration); assay type: cell-based; details: hCaR-HEK293 cells
T3 construct: expressed in transfected cells
T3 sequence (P41180 20-1078): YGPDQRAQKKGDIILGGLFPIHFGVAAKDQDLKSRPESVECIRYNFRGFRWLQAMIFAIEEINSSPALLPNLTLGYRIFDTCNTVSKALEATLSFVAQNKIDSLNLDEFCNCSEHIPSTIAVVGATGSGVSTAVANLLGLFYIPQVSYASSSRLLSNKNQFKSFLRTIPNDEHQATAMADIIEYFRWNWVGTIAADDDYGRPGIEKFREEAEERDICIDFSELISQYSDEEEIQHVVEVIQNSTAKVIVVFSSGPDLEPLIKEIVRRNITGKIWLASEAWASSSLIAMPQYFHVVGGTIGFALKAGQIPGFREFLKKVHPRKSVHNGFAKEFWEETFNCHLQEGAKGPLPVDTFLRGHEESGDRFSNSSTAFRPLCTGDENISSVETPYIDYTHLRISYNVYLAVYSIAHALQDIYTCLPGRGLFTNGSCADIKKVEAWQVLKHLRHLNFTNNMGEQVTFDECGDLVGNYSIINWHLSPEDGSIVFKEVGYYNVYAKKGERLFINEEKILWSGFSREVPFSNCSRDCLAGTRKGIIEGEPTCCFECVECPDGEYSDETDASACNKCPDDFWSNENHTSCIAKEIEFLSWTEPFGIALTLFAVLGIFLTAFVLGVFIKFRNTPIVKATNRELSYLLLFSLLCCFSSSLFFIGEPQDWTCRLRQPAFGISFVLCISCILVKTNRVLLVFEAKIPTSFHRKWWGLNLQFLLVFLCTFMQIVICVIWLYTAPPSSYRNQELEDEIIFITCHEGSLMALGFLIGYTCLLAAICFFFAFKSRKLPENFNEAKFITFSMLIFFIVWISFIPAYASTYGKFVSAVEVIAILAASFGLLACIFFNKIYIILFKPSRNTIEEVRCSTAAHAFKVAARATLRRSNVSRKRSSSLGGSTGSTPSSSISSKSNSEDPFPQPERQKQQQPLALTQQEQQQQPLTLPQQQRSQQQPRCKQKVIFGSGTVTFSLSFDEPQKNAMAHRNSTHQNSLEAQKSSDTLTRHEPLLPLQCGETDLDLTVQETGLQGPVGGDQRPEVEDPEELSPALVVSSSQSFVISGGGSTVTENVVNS
Procedure: HEK 293 cell is obtained from Summit Pharmaceuticals International Corporation (ATCC® Number: CRL-1573^TM). The HindIII-XhoI fragment of the human CaR cDNA was subcloned into the mammalian expression vector pcDNA3.1/Hygro (+) (Invitrogen) containing the hygromycin resistance gene as a selectable marker. This plasmid was transfected into HEK 293 cells by lipofection. The transfected cells were grown in DMEM containing 10% fetal bovine serum and hygromycin B ([…]) in 96 well plate. Hygromycin-resistant colonies were subcloned and assayed for hCaR mRNA by quantitative RT-PCR. The stably transfected cell line was then selected and used for agonistic activity studies.
Evocalcet was dissolved in dimethyl sulfoxide (DMSO) and diluted with HEPES buffer for the preparation of cells. Evocalcet solutions (3~30000 nM, 9-point concentrations) were added to a 96-well plate, and a suspension of HEK293 cells stably transfected with the human CaR was then seeded onto the plate. The ratio with the fluorescence intensity was determined continuously with a multi-label plate reader. To evaluate the agonistic activity pattern of evocalcet, calcium solutions in each concentration were added after the addition of evocalcet solutions to the plate.
The transient changes in the cytoplasmic calcium concentration (Δ[Ca^2+]i) induced by receptor activation were measured. (A) The effect of evocalcet on the Δ[Ca^2+]i value in hCaR-HEK293 cells. (B) The effect of evocalcet on the response rates elicited by increasing the extracellular calcium level in hCaR-HEK293 cells. The response rate was calculated using the following formula: Responserate(%)=Δ[Ca^2+]i/MaxΔ[Ca^2+]i×100 Δ[Ca^2+]i: Subtraction of basal [Ca^2+]i from maximum [Ca^2+]i observed after addition of evocalcet; Max Δ[Ca^2+]i: Δ[Ca^2+]i at the maximum Ca concentration (3 mmol/L).

T1 sequence (P11712 whole entry): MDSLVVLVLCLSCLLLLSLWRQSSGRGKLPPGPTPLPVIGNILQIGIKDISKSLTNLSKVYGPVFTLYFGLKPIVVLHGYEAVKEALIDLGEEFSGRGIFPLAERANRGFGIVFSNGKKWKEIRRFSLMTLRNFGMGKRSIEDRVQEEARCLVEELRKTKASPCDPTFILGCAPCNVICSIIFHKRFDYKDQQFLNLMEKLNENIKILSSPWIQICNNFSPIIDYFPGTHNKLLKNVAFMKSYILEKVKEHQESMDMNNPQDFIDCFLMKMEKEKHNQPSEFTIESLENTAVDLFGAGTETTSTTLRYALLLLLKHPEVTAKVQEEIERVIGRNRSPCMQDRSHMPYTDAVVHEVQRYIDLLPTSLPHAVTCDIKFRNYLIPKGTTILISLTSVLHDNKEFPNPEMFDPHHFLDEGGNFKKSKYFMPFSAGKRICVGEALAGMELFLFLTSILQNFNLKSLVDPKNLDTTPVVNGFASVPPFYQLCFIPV

Structure (SMILES): C[C@@H](N[C@H]1CCN(c2ccc(CC(=O)O)cc2)C1)c1cccc2ccccc12 [evocalcet]
- IC50 (CYP2C9): > 50 µM
- IC50 (CYP2C19): > 50 µM
- Δ[Ca^2+]i (human CaR; evocalcet 3 nmol/L): 1.94 nmol/L
- Δ[Ca^2+]i (human CaR; evocalcet 10 nmol/L): 6.18 nmol/L
- Response rate (human CaR; evocalcet 20 nmol/L, Ca concentration 0.25 mmol/L): 0%
- Response rate (human CaR; evocalcet 20 nmol/L, Ca concentration 0.3 mmol/L): 0%
- Response rate (human CaR; evocalcet 20 nmol/L, Ca concentration 0.6 mmol/L): 0.26%
- Response rate (human CaR; evocalcet 20 nmol/L, Ca concentration 0.9 mmol/L): 4.69%
- Response rate (human CaR; evocalcet 20 nmol/L, Ca concentration 1.2 mmol/L): 16.07%
- Response rate (human CaR; evocalcet 20 nmol/L, Ca concentration 1.5 mmol/L): 33.31%
- Response rate (human CaR; evocalcet 20 nmol/L, Ca concentration 1.8 mmol/L): 52.75%
- Response rate (human CaR; evocalcet 20 nmol/L, Ca concentration 2.1 mmol/L): 70.47%
- Response rate (human CaR; evocalcet 20 nmol/L, Ca concentration 2.4 mmol/L): 84.37%
- Response rate (human CaR; evocalcet 20 nmol/L, Ca concentration 2.7 mmol/L): 94.54%
- Response rate (human CaR; evocalcet 20 nmol/L, Ca concentration 3.0 mmol/L (maximum, reference)): 100%
- Δ[Ca^2+]i (human CaR; evocalcet 30 nmol/L): 17.71 nmol/L
- Response rate (human CaR; evocalcet 60 nmol/L, Ca concentration 0.25 mmol/L): 0%
- Response rate (human CaR; evocalcet 60 nmol/L, Ca concentration 0.3 mmol/L): 0%
- Response rate (human CaR; evocalcet 60 nmol/L, Ca concentration 0.6 mmol/L): 3.76%
- Response rate (human CaR; evocalcet 60 nmol/L, Ca concentration 0.9 mmol/L): 16.86%
- Response rate (human CaR; evocalcet 60 nmol/L, Ca concentration 1.2 mmol/L): 33.15%
- Response rate (human CaR; evocalcet 60 nmol/L, Ca concentration 1.5 mmol/L): 53.86%
- Response rate (human CaR; evocalcet 60 nmol/L, Ca concentration 1.8 mmol/L): 70.14%
- Response rate (human CaR; evocalcet 60 nmol/L, Ca concentration 2.1 mmol/L): 81.77%
- Response rate (human CaR; evocalcet 60 nmol/L, Ca concentration 2.4 mmol/L): 88.98%
- Response rate (human CaR; evocalcet 60 nmol/L, Ca concentration 2.7 mmol/L): 92.99%
- Response rate (human CaR; evocalcet 60 nmol/L, Ca concentration 3.0 mmol/L (maximum, reference)): 100%
- Δ[Ca^2+]i (human CaR; evocalcet 100 nmol/L): 50.62 nmol/L
- Δ[Ca^2+]i (human CaR; evocalcet 300 nmol/L): 71.35 nmol/L
- Δ[Ca^2+]i (human CaR; evocalcet 1000 nmol/L): 70.70 nmol/L
- Δ[Ca^2+]i (human CaR; evocalcet 3000 nmol/L): 75.59 nmol/L
- Δ[Ca^2+]i (human CaR; evocalcet 10000 nmol/L): 78.61 nmol/L
- Δ[Ca^2+]i (human CaR; evocalcet 30000 nmol/L): 77.66 nmol/L
- EC50 (human CaR; read-out: EC50 for [Ca^2+]i): 0.0927 µM

Reference: paper PMC5882164, “A novel calcimimetic agent, evocalcet (MT-4580/KHK7580), suppresses the parathyroid cell function with little effect on the gastrointestinal tract or CYP isozymes in vivo and in vitro” (PLoS ONE, 2018)
